Like-named read-outs stand apart in the source and are kept apart here.
Columns and labels:
Assay type in all cases: cell-based
platelets [1] = assay: mean platelet component (MPC) of stored blood samples, ADVIA 2120 Hematology System; conditions: for mean platelet component (MPC), Average: Table 1, stored at 22° C.
Protocol: The ADVIA® 120 Hematology System is an automated analyzer that, in addition to measuring the conventional hematologic indices, also provides some activation-related information about platelets. Macey M G et al., Cytometry 38:250-55 (1999). It measures the intensity of light scattered by platelets at two different cone angles (2-3° and 5-15° and from the paired values computes platelet volume (PV) and platelet component (PC) concentration on a cell-by-cell basis. These values are then averaged to provide the Mean Platelet Component (MPC).
(§1) The samples were subjected to gently agitation, and were stored either at room temperature (22° C.) or at 4° C., and mean platelet component and mean platelet volume values were obtained at the designated time points using the ADVIA® 2120 system.
(§2) Blood from healthy controls were also collected into Vacutainer® K3E 4.5 mL K3EDTA sample collection tubes (Cat. No. 367654, Becton, Dickinson and Company, Franklin Lakes, N.J.) and combined with the remaining STABILE-1 reagents (citrate-phosphate-dextrose, wortmanin, tyrphostin) to yield the prescribed concentrations. These samples were stored either at room temperature (22° C.) or at 4° C., and mean platelet component values were obtained at the designated time points using the ADVIA® 2120 system.
(§3) Blood from healthy controls were also collected into Vacutainer® K3E 4.5 mL K3EDTA sample collection tubes (Cat. No. 367654, Becton, Dickinson and Company, Franklin Lakes, N.J.) and combined with the remaining STABILE-1 reagents (citrate-phosphate-dextrose, wortmanin, tyrphostin) to yield the prescribed concentrations. […] Mean platelet component and mean platelet volume were assessed at 30 min, 6 hr, and 24 hr following blood collection/initial combination with storage reagents using the ADVIA® 2120 system (Bayer AG, Leverkusen, Germany). Flow cytometry techniques were used to identify platelet activation proteins, and the impact of these strategies on ultrastructural morphology of platelets was morphometrically evaluated using electron microscopy (EM). The values obtained at t=0+30 (i.e., 30 min after blood collection and the initial combination with the storage reagents) were designated as baseline values to which values observed at t=6 hr and t=24 hr were compared.
(§4) Blood from healthy controls were carefully collected, and mean platelet component was assessed upon combination of blood with the respective storage reagents, using the ADVIA® 2120 system (Bayer AG, Leverkusen, Germany), and again at 1 hr, 3 hr, 6 hr, and 24 hr following the initial combination with storage reagents. All samples were stored at room temperature (22° C.).
as §4, with “Experiments were conducted in order to assess the effect of varying the concentration of the citrate-phosphate-dextrose component in the STABILE-1 storage medium on the mean platelet component. Blood” for “Blood”

platelets [2] = conditions: for MPV, increase in % vs 30 min baseline: n = 8; for mean platelet volume (MPV), Average: Table 4, stored at 22° C.
Protocol: as §1
as §2, with “volume was assessed” for “values were obtained”
as §3, with “(EM).” for “(EM). The values obtained at t=0+30 (i.e., 30 min after blood collection and the initial combination with the storage reagents) were designated as baseline values to which values observed at t=6 hr and t=24 hr were compared.”

[3] = tested on: P-selectin (also known as CD62P); assay: P-selectin expression of stored platelets, flow cytometry; conditions: 22° C., n = 8
Protocol: as §3

platelets [4] = assay: morphometric evaluation of α-granules per platelet and platelet morphology, electron microscopy
Protocol: as §3

platelets [5] = assay: morphometric evaluation of dense bodies per platelet, electron microscopy whole mounts; conditions: * = statistically significant at the 95% confidence level
Description: In accordance with published methods, platelet whole mounts were viewed “by transparence”, i.e., while supported on polyvinal formal resin, and dense bodies were counted.
The plot depicts mean values with 95% LSD intervals.

Which MPC (platelets [1]; 30 min (baseline), 22° C., n = 8) does the source give for `O=C(O)CN(CCN(CC(=O)O)CC(=O)O)CC(=O)O` [EDTA, Ethylenediaminetetraacetic acid] here?
Its MPC is 259 ± 6.6 g/L.

And the “MPC, reduction in % vs 30 min baseline” value (platelets [1]; 6 hours, 22° C., n = 8)?
Its value is −9%.

And the “MPC, reduction in % vs 30 min baseline” value (platelets [1]; 24 hours, 22° C., n = 8)?
The value was −21%.

What about the “mean platelet component (MPC), Average” value (platelets [1]; 0 min, n 12) of the same compound?
Its value is 260.83.

What about the “mean platelet component (MPC), Average” value (platelets [1]; 30 min, n 15) of the same compound?
Its value is 258.07.

What about the “mean platelet component (MPC), Average” value (platelets [1]; 1 h, n 15) of the same compound?
Its value is 252.00.

What about the “mean platelet component (MPC), Average” value (platelets [1]; 3 h, n 15) of the same compound?
The value was 239.07.

And the “mean platelet component (MPC), Average” value (platelets [1]; 6 h, n 15)?
Its value is 229.87.

What about the “mean platelet component (MPC), Average” value (platelets [1]; 24 h, n 15) of the same compound?
Its value is 201.07.

And the mean platelet component (platelets [1]; Table 8, 0, stored at room temperature (22° C.))?
The mean platelet component was 278.

What about the mean platelet component (platelets [1]; Table 8, 1 hr, stored at room temperature (22° C.)) of the same compound?
The mean platelet component was 273.

And the mean platelet component (platelets [1]; Table 8, 3 hr, stored at room temperature (22° C.))?
The mean platelet component was 265.

And the mean platelet component (platelets [1]; Table 8, 6 hr, stored at room temperature (22° C.))?
The mean platelet component was 268.

And the mean platelet component (platelets [1]; Table 8, 24 hr, stored at room temperature (22° C.))?
The mean platelet component was 233.

And the mean platelet component (platelets [1]; Table 10, 0, stored at room temperature (22° C.))?
The mean platelet component was 258.

And the mean platelet component (platelets [1]; Table 10, 1 hr, stored at room temperature (22° C.))?
The mean platelet component was 247.

What about the mean platelet component (platelets [1]; Table 10, 3 hr, stored at room temperature (22° C.)) of the same compound?
Its mean platelet component is 235.

And the mean platelet component (platelets [1]; Table 10, 6 hr, stored at room temperature (22° C.))?
The mean platelet component was 225.

And the mean platelet component (platelets [1]; Table 10, 24 hr, stored at room temperature (22° C.))?
Its mean platelet component is 190.

What about the mean platelet component (platelets [1]; Table 11, 0, stored at room temperature (22° C.)) of the same compound?
The mean platelet component was 288.

And the mean platelet component (platelets [1]; Table 11, 1 hr, stored at room temperature (22° C.))?
Its mean platelet component is 282.

What about the mean platelet component (platelets [1]; Table 11, 3 hr, stored at room temperature (22° C.)) of the same compound?
The mean platelet component was 271.

What about the mean platelet component (platelets [1]; Table 11, 6 hr, stored at room temperature (22° C.)) of the same compound?
The mean platelet component was 269.

And the mean platelet component (platelets [1]; Table 11, 24 hr, stored at room temperature (22° C.))?
Its mean platelet component is 227.

What about the “decrease in the mean platelet component” value (platelets [1]; six hours after initial combination (t=0), storage at 22° C., Tables 1 and 2) of the same compound?
The value was roughly 12%.

What about the “decrease of MPC values” (platelets [1]; t=5.5 hr after baseline measurements, room temperature / 22° C.) of the same compound?
The value was 9%.

And the MPV (platelets [2])?
Its MPV is 8.3 ± 0.2 fL.

What about the “increase of MPV values” (platelets [2]; 5.5 hours after baseline, 22° C.) of the same compound?
The value was 10.2%.

What about the “MPV, increase in % vs 30 min baseline” value (platelets [2]; 6 hours, 22° C.) of the same compound?
The value was “+10.2%”.

And the “MPV, increase in % vs 30 min baseline” value (platelets [2]; 24 hours, 22° C.)?
Its value is “+23%”.

What about the “mean platelet volume (MPV), Average” value (platelets [2]; 0 min, n 12) of the same compound?
The value was 8.36.

And the “mean platelet volume (MPV), Average” value (platelets [2]; 30 min, n 15)?
Its value is 8.41.

And the “mean platelet volume (MPV), Average” value (platelets [2]; 1 h, n 15)?
The value was 8.65.

And the “mean platelet volume (MPV), Average” value (platelets [2]; 3 h, n 15)?
The value was 9.22.

What about the “mean platelet volume (MPV), Average” value (platelets [2]; 6 h, n 15) of the same compound?
Its value is 9.53.

And the “mean platelet volume (MPV), Average” value (platelets [2]; 24 h, n 15)?
The value was 10.63.

And the “increase in the mean platelet volume” value (platelets [2]; six hours after initial combination (t=0), storage at 22° C., Tables 4 and 5)?
The value was roughly 12%.

And the “P-selectin, % of positive platelets” value ([3]; 30 min (baseline))?
The value was 2.1%.

And the “P-selectin, % of positive platelets” value ([3]; 6 hours)?
The value was 13.9%.

And the “P-selectin, % of positive platelets” value ([3]; 24 hours)?
The value was 40.8%.

What about the “number of α-granules per platelet section” value (platelets [4]; 6 h) of the same compound?
Its value is 6.4±2.3.

What about the “number of α-granules per platelet section” value (platelets [4]; 24 h) of the same compound?
Its value is 3.5±1.4.

What about the “number of α-granules per platelet as compared with t=0” value (platelets [4]; FIG. 4A, six hours of storage, 22° C.) of the same compound?
The value was “statistical reduction”.

And the “number of α-granules per platelet section” value (platelets [4]; baseline)?
Its value is 12.3±6.07.

And the “Difference, mean number of dense bodies per platelet” value (from here on “Difference … per platelet”) (platelets [5]; Contrast EDTA 0 hr vs. stored 1 hr)?
The value was −1.26*.

And the “Difference … per platelet” value (platelets [5]; Contrast EDTA 0 hr vs. stored 24 hr)?
Its value is 2.1*.

What about the “Difference … per platelet” value (platelets [5]; Contrast EDTA 1 hr vs. EDTA 6 hr) of the same compound?
Its value is 1.9*.

Source: patent US20100167261A1, “PLATELET STABILIZATION” (SIEMENS HEALTHCARE DIAGNOSTICS INC., priority 2006, published 2010)
